In BindingDB's records for doi:10.1016/j.bmc.2017.06.049 (Federal University of Alagoas, 2017):

Test: Inhibition of Chikungunya virus nsP2 protease infected in African green monkey Vero cells assessed as inhibition of viral-induced cytopathic effect by titration assay

SMILES | EC50 [µM]
CCOc1ccc(/C=N/NC(=O)C2CC2c2ccc(C(C)(C)C)cc2)cc1OCC (configuration not stated) | 5
CCOc1ccc(/C=N/NC(=O)/C=C/Cc2ccc(C(C)(C)C)cc2)cc1OCC | 3.2
